According to PMC6167350, “Small-molecule AgrA inhibitors F12 and F19 act as antivirulence agents against Gram-positive pathogens” (Scientific Reports, 2018):

Legend:
[1] = target: T1, AgrA (C-terminal DNA-binding domain, AgrA_C) (Staphylococcus aureus, UniProt P0A0I7, C199S); assay: microscale thermophoresis (Alexa Fluor 647-labeled protein)
T1 sequence (P0A0I7 143-238 C199S): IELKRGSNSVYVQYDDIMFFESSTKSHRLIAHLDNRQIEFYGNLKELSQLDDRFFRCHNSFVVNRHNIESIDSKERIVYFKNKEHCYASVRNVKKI

[2] = target: AgrA (C-terminal DNA-binding domain, AgrA_C) (Staphylococcus epidermidis, UniProt Q8CNM5); assay: microscale thermophoresis; also EMSA (F19 blocks P3 DNA binding)

SMILES	Kd [1] [µM]	Kd [2] [µM]
CCCCCCc1cc(C(=O)COc2ccc(F)cc2F)c(O)cc1O [F12]	4.5 ± 0.4	
CCCCCCc1cc(C(=O)COc2ccc(C(C)C)cc2)c(O)cc1O [F19]	2.9 ± 0.4	2.7 ± 0.7
